# Data: patent US9469615B2, “Quinoxalines and AZA-quinoxalines as CRTH2 receptor modulators” (Merck Sharp & Dohme Corp., priority 2010, dated 2016)
# pKi: −log10 of the molar value.
# Molecular target: T1, hCRTH2 (Homo sapiens, UniProt Q9Y5Y4)
# T1 construct: expressed in transfected cells; host or cells: HEK (human embryonic kidney) cells expressing hCRTH2; membrane preparation
# T1 sequence (Q9Y5Y4 1-395): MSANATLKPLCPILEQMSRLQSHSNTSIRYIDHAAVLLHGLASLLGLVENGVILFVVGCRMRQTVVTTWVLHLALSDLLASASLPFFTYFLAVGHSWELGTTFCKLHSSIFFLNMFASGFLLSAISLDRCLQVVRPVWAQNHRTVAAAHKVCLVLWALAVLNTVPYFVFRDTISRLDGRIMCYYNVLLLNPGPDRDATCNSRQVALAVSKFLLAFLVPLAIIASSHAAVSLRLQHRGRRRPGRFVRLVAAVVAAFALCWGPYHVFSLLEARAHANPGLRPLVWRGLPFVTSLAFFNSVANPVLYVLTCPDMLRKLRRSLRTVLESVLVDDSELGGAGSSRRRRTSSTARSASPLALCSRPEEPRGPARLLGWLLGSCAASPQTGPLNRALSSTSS
# Test: Radioligand binding assay ([3H]PGD2 competition, HEK-hCRTH2 membranes)
# Conditions: [3H]PGD2 binding, rated A-E (Table A)
# In short: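 Filter-bound radioactivity was counted by scintillation after 60 min incubations at room temperature. Membranes (8-20 μg) from HEK cells expressing hCRTH2 competed test ligands against 3.0 nM [3H]PGD2 in Tris-HCl pH 7.4 buffer with EDTA and 2 mM MnCl2; 10 μM PGD2 set non-specific binding.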
row,pKi,SMILES
1,7.70 to 8.68,"CC(CCc1nc2cc(C(=O)N3CCC(c4ccccc4)CC3)ccc2nc1-c1ccc(Cl)cc1)CC(=O)O (stereo not drawn) [compound 17, 3-(4-chlorophenyl)-beta-methyl-7-[(4-phenyl-1-piperidinyl)carbonyl]-2-quinoxalinepentanoic acid]"
2,7.70 to 8.68,"CC(CCCc1nc2cc(C(=O)N3CCC(c4ccccc4)CC3)ccc2nc1-c1ccc(C(F)(F)F)cc1)C(=O)O (stereo not drawn) [compound 18, alpha-methyl-7-[(4-phenyl-1-piperidinyl)carbonyl]-3-[4-(trifluoromethyl)phenyl]-2-quinoxalinepentanoic acid]"
3,7.70 to 8.68,"O=C(O)Cc1cccc(CCc2nc3cc(C(=O)N4CCC(c5ccccc5)CC4)ccc3nc2-c2ccc(Cl)cc2)c1 [compound 19, 2-(3-(2-(3-(4-chlorophenyl)-7-(4-phenylpiperidine-1-carbonyl)quinoxalin-2-yl)ethyl)phenyl)acetic acid]"
4,8.70 to 10.00,"C[C@H](c1ccccc1)N(C)C(=O)c1ccc2nc(-c3ccc(F)cc3)c(CCCCC(=O)O)nc2c1 [compound 21, (R)-5-(3-(4-fluorophenyl)-7-(methyl(1-phenylethyl)carbamoyl)quinoxalin-2-yl)pentanoic acid]"
5,6.70 to 7.70,O=C(NCc1cccc(Cl)c1)c1ccc2nc(-c3ccccc3)c(CCCc3nnn[nH]3)nc2c1 [compound 22]
6,6.70 to 7.70,"O=C(O)CCCc1nc2cc(C(=O)NCc3cccc(Cl)c3)ccc2nc1-c1ccccc1 [compound 23, 7-[[[(3-chlorophenyl)methyl]amino]carbonyl]-3-phenyl-2-quinoxalinebutanoic acid]"
7,7.70 to 8.68,"O=C(O)CCCCc1nc2cc(C(=O)N3CC[C@@H](c4ccccc4)C3)c(F)cc2nc1-c1ccc(Cl)cc1 [compound 24, 3-(4-chlorophenyl)-6-fluoro-7-[(3(S)-phenyl-1-pyrrolidinyl)carbonyl]-2-quinoxalinepentanoic acid]"
8,6.15 to 6.70,"O=C(O)CCCCc1nc2cc(S(=O)(=O)N3CCC(c4ccccc4)CC3)ccc2nc1-c1ccc(Cl)cc1 [compound 25, 5-(3-(4-chlorophenyl)-7-(4-phenylpiperidin-1-ylsulfonyl)quinoxalin-2-yl)pentanoic acid]"
9,8.70 to 10.00,"O=C(O)CCCCc1nc2cc(C(=O)N3CCC(c4ccccc4)C3)ccc2nc1-c1ccc(C(F)(F)F)cc1 (centres unmarked) [compound 26, 5-(7-(3-Phenylpyrrolidine-1-carbonyl)-3-(4-(trifluoromethyl)phenyl)-quinoxalin-2-yl)pentanoic acid]"
10,7.70 to 8.68,"O=C(O)CCOCc1nc2cc(C(=O)N3CCC(c4ccccc4)CC3)ccc2nc1-c1ccc(Cl)cc1 [compound 29, 3-((3-(4-chlorophenyl)-7-(4-phenylpiperidine-1-carbonyl)quinoxalin-2-yl)methoxy)propanoic acid]"
11,7.70 to 8.68,"O=C(O)C1CC(Cc2nc3cc(C(=O)N4CCC(c5ccccc5)CC4)ccc3nc2-c2ccc(Cl)cc2)C1 (centres unmarked) [compound 30, 3-((3-(4-chlorophenyl)-7-(4-phenylpiperidine-1-carbonyl)quinoxalin-2-yl)methyl)cyclobutanecarboxylic acid]"
12,7.70 to 8.68,"O=C(O)CCCCc1nc2cc(C(=O)N3CC(c4nc5ccccc5[nH]4)C3)ccc2nc1-c1ccc(F)cc1 [compound 31, 5-(7-(3-(1H-benzo[d]imidazol-2-yl)azetidine-1-carbonyl)-3-(4-fluorophenyl)quinoxalin-2-yl)pentanoic acid]"
13,7.70 to 8.68,"O=C(O)Cc1cccc(CCCc2nc3cc(C(=O)N4CCC(c5ccccc5)CC4)ccc3nc2-c2ccc(Cl)cc2)c1 [compound 32, 2-(3-(3-(3-(4-chlorophenyl)-7-(4-phenylpiperidine-1-carbonyl)quinoxalin-2-yl)propyl)phenyl)acetic acid]"
14,6.70 to 7.70,"O=C(O)CCCC(O)c1nc2cc(C(=O)N[C@@H]3CCCc4ccccc43)ccc2nc1-c1ccc(Cl)cc1 (stereo partly drawn) [compound 33, 5-(3-(4-chlorophenyl)-7-(((R)-1,2,3,4-tetrahydronaphthalen-1-yl)carbamoyl)quinoxalin-2-yl)-5-hydroxypentanoic acid]"
15,6.15 to 6.70,"O=C(O)CCCC(=O)c1nc2cc(C(=O)N[C@@H]3CCCc4ccccc43)ccc2nc1-c1ccc(Cl)cc1 [compound 34, (R)-5-(3-(4-chlorophenyl)-7-((1,2,3,4-tetrahydronaphthalen-1-yl)carbamoyl)quinoxalin-2-yl)-5-oxopentanoic acid]"
16,6.70 to 7.70,"O=C(O)CCCC(F)c1nc2cc(C(=O)N[C@@H]3CCCc4ccccc43)ccc2nc1-c1ccc(Cl)cc1 (stereo partly drawn) [compound 35, 5-(3-(4-chlorophenyl)-7-(((R)-1,2,3,4-tetrahydronaphthalen-1-yl)carbamoyl)quinoxalin-2-yl)-5-fluoropentanoic acid]"

row,pKi,SMILES
1,5.64 to 6.15,"C[C@@H](NC(=O)c1ccc2nc(-c3ccccc3)c(CCCC(=O)O)nc2c1)c1ccc(F)cc1 [compound 36, (R)-4-(7-((1-(4-fluorophenyl)ethyl)carbamoyl)-3-phenylquinoxalin-2-yl)butanoic acid]"
2,6.70 to 7.70,"C[C@@H](NC(=O)c1ccc2nc(-c3ccccc3)c(CCCC(F)(F)C(=O)O)nc2c1)c1ccc(F)cc1 [compound 37, (R)-2,2-difluoro-5-(7-((1-(4-fluorophenyl)ethyl)carbamoyl)-3-phenylquinoxalin-2-yl)pentanoic acid]"
3,7.70 to 8.68,"C[C@@H]1CN(c2ccc(F)cc2)CCN1C(=O)c1ccc2nc(-c3ccccc3)c(CCCCC(=O)O)nc2c1 [compound 39, (R)-5-(7-(4-(4-fluorophenyl)-2-methylpiperazine-1-carbonyl)-3-phenylquinoxalin-2-yl)pentanoic acid]"
4,7.70 to 8.68,"O=C(O)CCCCc1nc2cc(C(=O)N[C@@H]3CCCc4cc(F)ccc43)ccc2nc1-c1ccccc1 [compound 40, (R)-5-(7-((6-fluoro-1,2,3,4-tetrahydronaphthalen-1-yl)carbamoyl)-3-phenylquinoxalin-2-yl)pentanoic acid]"
5,7.70 to 8.68,"C[C@@H]1CN(c2ccccc2)CCN1C(=O)c1ccc2nc(-c3ccccc3)c(CCCCC(=O)O)nc2c1 [compound 41, (R)-5-(7-(2-methyl-4-phenylpiperazine-1-carbonyl)-3-phenylquinoxalin-2-yl)pentanoic acid]"
6,7.70 to 8.68,"O=C(O)Cc1cc(F)cc(CCc2nc3cc(C(=O)N4CCC(c5ccccc5)CC4)ccc3nc2-c2ccc(Cl)cc2)c1 [compound 42, 2-(3-(2-(3-(4-chlorophenyl)-7-(4-phenylpiperidine-1-carbonyl)quinoxalin-2-yl)ethyl)-5-fluorophenyl)acetic acid]"
7,7.70 to 8.68,"C[C@@H]1CN(c2ccc(F)cc2)CCN1C(=O)c1ccc2nc(-c3ccccc3)c(NCCCC(=O)O)nc2c1 [compound 44, (R)-4-((7-(4-(4-fluorophenyl)-2-methylpiperazine-1-carbonyl)-3-phenylquinoxalin-2-yl)amino)butanoic acid]"
8,8.70 to 10.00,O=C(O)CCCCc1nc2cc(C(=O)NCc3ccc(Cl)cc3)ccc2nc1-c1ccc(F)cc1 [compound 100]
9,7.70 to 8.68,"O=C(O)CCCCc1nc2cc(C(=O)NCc3cccc(Cl)c3)ccc2nc1-c1ccc(F)cc1 [compound 101, 7-[[[(3-chlorophenyl)methyl]amino]carbonyl]-3-(4-fluorophenyl)-2-quinoxalinepentanoic acid]"
10,7.70 to 8.68,"O=C(O)CCCCc1nc2cc(C(=O)N[C@@H](c3ccccc3)C(F)(F)F)ccc2nc1-c1ccc(F)cc1 [compound 102, 3-(4-fluorophenyl)-7-[[(2,2,2-trifluoro-1(S)-phenylethyl)amino]carbonyl]-2-quinoxalinepentanoic acid]"
11,8.70 to 10.00,"O=C(O)CCCCc1nc2cc(C(=O)NC3Cc4ccccc4C3)ccc2nc1-c1ccc(F)cc1 [compound 103, 7-[[(2,3-dihydro-1H-inden-2-yl)amino]carbonyl]-3-(4-fluorophenyl)-2-quinoxalinepentanoic acid]"
12,7.70 to 8.68,"N#Cc1ccc(CNC(=O)c2ccc3nc(-c4ccc(F)cc4)c(CCCCC(=O)O)nc3c2)cc1 [compound 104, 7-[[[(4-cyanophenyl)methyl]amino]carbonyl]-3-(4-fluorophenyl)-2-quinoxalinepentanoic acid]"
13,7.70 to 8.68,"O=C(O)CCCCc1nc2cc(C(=O)N3CCC(c4ccccc4)CC3)ccc2nc1-c1ccc(F)cc1 [compound 105, 3-(4-fluorophenyl)-7-[(4-phenyl-1-piperidinyl)carbonyl]-2-quinoxalinepentanoic acid]"
14,8.70 to 10.00,"O=C(O)CCCCc1nc2cc(C(=O)N3CCC(c4ccccc4)C3)ccc2nc1-c1ccc(F)cc1 (centres unmarked) [compound 106, 3-(4-fluorophenyl)-7-[(3-phenyl-1-pyrrolidinyl)carbonyl]-2-quinoxalinepentanoic acid]"
15,7.70 to 8.68,"O=C(O)CCCCc1nc2cc(C(=O)NCc3ccc(OC(F)(F)F)cc3)ccc2nc1-c1ccc(F)cc1 [compound 107, 3-(4-fluorophenyl)-7-[[[[4-(trifluoromethoxy)phenyl]methyl]amino]carbonyl]-2-quinoxalinepentanoic acid]"
16,7.70 to 8.68,"O=C(O)CCCCc1nc2cc(C(=O)NCc3cc(Cl)cc(Cl)c3)ccc2nc1-c1ccc(F)cc1 [compound 108, 7-[[[(3,5-dichlorophenyl)methyl]amino]carbonyl]-3-(4-fluorophenyl)-2-quinoxalinepentanoic acid]"

# Same assay, conditions: [3H]PGD2 binding, values in text
row,pKi,SMILES
1,6.15,"C[C@@H](NC(=O)c1ccc2nc(-c3ccccc3)c(CCCC(=O)O)nc2c1)c1ccc(F)cc1 [compound 36, (R)-4-(7-((1-(4-fluorophenyl)ethyl)carbamoyl)-3-phenylquinoxalin-2-yl)butanoic acid]"
2,8.10,"C[C@@H]1CN(c2ccc(F)cc2)CCN1C(=O)c1ccc2nc(-c3ccccc3)c(CCCCC(=O)O)nc2c1 [compound 39, (R)-5-(7-(4-(4-fluorophenyl)-2-methylpiperazine-1-carbonyl)-3-phenylquinoxalin-2-yl)pentanoic acid]"
3,8.06,"C[C@@H]1CN(c2ccccc2)CCN1C(=O)c1ccc2nc(-c3ccccc3)c(CCCCC(=O)O)nc2c1 [compound 41, (R)-5-(7-(2-methyl-4-phenylpiperazine-1-carbonyl)-3-phenylquinoxalin-2-yl)pentanoic acid]"
